Laboratory results taken from patent publication US11584755B2 (IDEAYA BIOSCIENCES, INC., priority 2017, dated 2023).

What was measured:
hFEN1 = hFEN1 (Homo sapiens (Human), UniProt P39748); assay: Enzymatic IC50 assay, FAM-labeled DNA oligomer substrate, fluorescence intensity (FEN1); assay type: biochemical; details: hFEN1 70 pM, substrate 100 nM, reaction time 20 minutes, 23° C.
Procedure: (§1) FEN1, EXO1 or XPG enzyme was incubated with compound or vehicle (DMSO) and the FAM-labeled DNA oligomer substrate in a microtiter plate. The stop buffer contains EDTA to stop the enzymatic reaction. The plate is read for fluorescence intensity. The high control (DMSO) with high fluorescence intensity represents no inhibition of enzymatic reaction while the low control (10 μM) with low fluorescence intensity represents full inhibition of enzymatic reaction.
(§2) • FEN1 • hFEN1: 70 pM • Substrate: 100 nM • Reaction time: 20 minutes • EXO1 • hEXO1: 6 nM, Isoforml • Substrate: 30 nM • Reaction time: 60 minutes • XPG • hXPG: 100 nM • Substrate: 100 nM • Reaction time: 120 minutes
(§3) Annealing Buffer: 50 mM Tris-HCl, 50 mM NaCl, 1 mM DTT Assay buffer: 50 mM Tris-HCl pH 8.0, 10 mM MgCl2, 0.01% BSA, 1 mM DTT Stop buffer: 50 mM EDTA in assay buffer Temperature: 23° C. Total volume: 40 μl Controls: • 0% inhibition control: DMSO • 100% inhibition control: 10 μM (final) 5-chloro-3-hydroxy-1,3-dihydroquinazoline-2,4-dione Enzyme Reaction and Detection: • 1. Prepare 25 μM intermediate stock of the substrate by diluting SEQ ID NO:1, SEQ ID NO:2, and SEQ ID NO:3 in annealing buffer, in a PCR tube. • 2. Place the PCR tube on a heat block, heat at 95° C. for 3 minutes, then drop in 0.2° C. increments over 2 minutes, stopping at 25° C. • 3. Remove the tube and let the tube cool at room temperature. • 4. Transfer 10 μL of 3× final concentration test compounds or DMSO to the appropriate wells of a microtiter plate. • 5. Transfer 10 μL of 3× final concentration enzyme in assay buffer or assay buffer alone to the appropriate wells. • 6. Incubate the plate at room temperature for 15 minutes. • 7. Transfer 10 μL of 3× substrate in assay buffer to all the test wells. • 8. Incubate the plate at room temperature for prescribed reaction time. • 9. Centrifuge the plate at 1000 rpm for 1 minute. • 10. Transfer 10 μL of stop buffer to all the test wells. • 11. Centrifuge the plate at 1000 rpm for 1 minute. • 12. Read the plate on a plate reader.

hEXO1, Isoform1 = hEXO1, Isoform1 (Homo sapiens (Human), UniProt Q9UQ84); assay: Enzymatic IC50 assay, FAM-labeled DNA oligomer substrate, fluorescence intensity (EXO1); assay type: biochemical; details: hEXO1 6 nM, substrate 30 nM, reaction time 60 minutes, 23° C.
Procedure: as §1, §2, §3

Sequence of hFEN1 (P39748 whole entry): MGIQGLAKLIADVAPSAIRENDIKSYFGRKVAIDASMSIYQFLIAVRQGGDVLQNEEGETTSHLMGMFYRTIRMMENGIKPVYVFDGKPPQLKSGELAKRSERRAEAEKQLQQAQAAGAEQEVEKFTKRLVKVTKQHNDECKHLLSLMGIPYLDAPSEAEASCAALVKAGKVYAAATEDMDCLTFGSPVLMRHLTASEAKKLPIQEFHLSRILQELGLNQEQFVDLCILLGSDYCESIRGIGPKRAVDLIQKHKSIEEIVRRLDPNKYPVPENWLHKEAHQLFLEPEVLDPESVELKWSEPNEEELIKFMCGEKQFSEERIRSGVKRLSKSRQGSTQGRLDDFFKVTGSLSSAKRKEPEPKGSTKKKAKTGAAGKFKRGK
Sequence of hEXO1, Isoform1 (Q9UQ84 whole entry, canonical isoform): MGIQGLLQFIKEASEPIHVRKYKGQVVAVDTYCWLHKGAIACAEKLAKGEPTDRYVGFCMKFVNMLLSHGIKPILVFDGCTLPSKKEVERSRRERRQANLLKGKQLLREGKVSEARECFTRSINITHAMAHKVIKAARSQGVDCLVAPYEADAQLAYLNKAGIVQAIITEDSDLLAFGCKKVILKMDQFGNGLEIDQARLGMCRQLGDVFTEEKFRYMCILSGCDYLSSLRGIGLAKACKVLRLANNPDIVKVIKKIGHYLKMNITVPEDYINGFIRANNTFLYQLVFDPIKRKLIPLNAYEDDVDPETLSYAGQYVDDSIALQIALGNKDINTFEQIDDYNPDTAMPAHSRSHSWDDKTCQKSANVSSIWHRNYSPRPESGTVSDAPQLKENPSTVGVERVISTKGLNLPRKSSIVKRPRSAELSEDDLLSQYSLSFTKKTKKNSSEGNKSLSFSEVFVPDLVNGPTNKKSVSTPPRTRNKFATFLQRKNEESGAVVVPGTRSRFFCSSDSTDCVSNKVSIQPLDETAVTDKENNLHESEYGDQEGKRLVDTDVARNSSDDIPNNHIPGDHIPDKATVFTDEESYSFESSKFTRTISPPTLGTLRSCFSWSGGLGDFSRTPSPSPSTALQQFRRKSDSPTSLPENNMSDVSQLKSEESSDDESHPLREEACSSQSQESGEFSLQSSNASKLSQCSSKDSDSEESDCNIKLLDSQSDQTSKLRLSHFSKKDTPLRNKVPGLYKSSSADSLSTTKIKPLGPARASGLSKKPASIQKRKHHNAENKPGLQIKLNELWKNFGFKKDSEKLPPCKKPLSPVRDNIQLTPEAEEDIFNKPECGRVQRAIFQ

Compound | IC50 (hFEN1) | IC50 (hEXO1, Isoform1)
O=C(O)c1c(O)c(=O)n(Cc2cnc(-c3ccnc4ccccc34)s2)c2ccsc12 [Example 170, 6-hydroxy-5-oxo-4-{[2-(quinolin-4-yl)thiazol-5-yl]methyl}-4,5-dihydrothieno[3,2-b]pyridine-7-carboxylic acid] | 0.75 to 2.25 µM | 0.75 to 2.25 µM
CNC(=O)c1cccc(Cn2c(=O)c(O)c(C(=O)O)c3sccc32)c1 [Example 66, 6-hydroxy-4-[3-(methylcarbamoyl)benzyl]-5-oxo-4,5-dihydrothieno[3,2-b]pyridine-7-carboxylic acid] | 2.25 to 10 µM | 2.25 to 10 µM
COc1cc(-c2cccn3c(Cn4c(=O)c(O)c(C(=O)O)c5sccc54)cnc23)ccn1 [Example 165, 6-hydroxy-4-{[8-(2-methoxypyridin-4-yl)imidazo[1,2-a]pyridin-3-yl]methyl}-5-oxo-4,5-dihydrothieno[3,2-b]pyridine-7-carboxylic acid] | 0.75 to 2.25 µM | 0.75 to 2.25 µM
Cc1nc(Cn2c(=O)c(O)c(C(=O)O)c3sccc32)cs1 [Example 92, 6-hydroxy-4-[(2-methylthiazol-4-yl)methyl]-5-oxo-4,5-dihydrothieno[3,2-b]pyridine-7-carboxylic acid] | 2.25 to 10 µM | > 10 µM
Cn1ncc(Cn2c(=O)c(O)c(C(=O)O)c3sccc32)c1-c1ccccc1 [Example 160, 6-hydroxy-4-[(1-methyl-5-phenyl-1H-pyrazol-4-yl)methyl]-5-oxo-4,5-dihydrothieno[3,2-b]pyridine-7-carboxylic acid] | > 10 µM | > 10 µM
O=C(O)c1c(O)c(=O)n(Cc2cnc(-c3cccc4ncccc34)s2)c2ccsc12 [Example 169, 6-hydroxy-5-oxo-4-{[2-(quinolin-5-yl)thiazol-5-yl]methyl}-4,5-dihydrothieno[3,2-b]pyridine-7-carboxylic acid] | 2.25 to 10 µM | 0.75 to 2.25 µM
Cc1nn(C)cc1Cn1c(=O)c(O)c(C(=O)O)c2sccc21 [Example 162, 4-[(1,3-dimethyl-1H-pyrazol-4-yl)methyl]-6-hydroxy-5-oxo-4,5-dihydrothieno[3,2-b]pyridine-7-carboxylic acid] | 0.75 to 2.25 µM | 2.25 to 10 µM
CC(=O)N1CCC(Cn2c(=O)c(O)c(C(=O)O)c3sccc32)CC1 [Example 9, 4-[(1-acetyl-4-piperidyl)methyl]-6-hydroxy-5-oxo-thieno[3,2-b]pyridine-7-carboxylic acid] | 2.25 to 10 µM | 2.25 to 10 µM
Cc1nc(Cn2c(=O)c(O)c(C(=O)O)c3sccc32)co1 [Example 96, 6-hydroxy-4-((2-methyloxazol-4-yl)methyl)-5-oxo-4,5-dihydrothieno[3,2-b]pyridine-7-carboxylic acid] | > 10 µM | > 10 µM
O=C(O)c1c(O)c(=O)n(CC2CCCNC2)c2ccsc12 (stereo not drawn) [Example 62, 6-hydroxy-5-oxo-4-(piperidin-3-ylmethyl)-4,5-dihydrothieno[3,2-b]pyridine-7-carboxylic acid] | 2.25 to 10 µM | 2.25 to 10 µM
O=C(O)c1c(O)c(=O)n(Cc2cnc(-c3cccc4cnccc34)s2)c2ccsc12 [Example 168, 6-hydroxy-4-{[2-(isoquinolin-5-yl)thiazol-5-yl]methyl}-5-oxo-4,5-dihydrothieno[3,2-b]pyridine-7-carboxylic acid] | 2.25 to 10 µM | 2.25 to 10 µM
N#Cc1ccc(Cn2c(=O)c(O)c(C(=O)O)c3sccc32)cc1 [Example 48, 4-(4-cyanobenzyl)-6-hydroxy-5-oxo-4,5-dihydrothieno[3,2-b]pyridine-7-carboxylic acid] | 2.25 to 10 µM | 2.25 to 10 µM
O=C(O)c1c(O)c(=O)n(CC2CCCC2)c2ccsc12 [Example 45, 4-(cyclopentylmethyl)-6-hydroxy-5-oxo-4,5-dihydrothieno[3,2-b]pyridine-7-carboxylic acid] | 2.25 to 10 µM | 2.25 to 10 µM
O=C(O)c1c(O)c(=O)n(Cc2cccc3nonc23)c2ccsc12 [Example 72, 4-(benzo[c][1,2,5]oxadiazol-4-ylmethyl)-6-hydroxy-5-oxo-4,5-dihydrothieno[3,2-b]pyridine-7-carboxylic acid] | 2.25 to 10 µM | 2.25 to 10 µM
COc1ccc(Cn2c(=O)c(O)c(C(=O)O)c3sccc32)cc1NC(C)=O [Example 89, 4-(3-acetamido-4-methoxybenzyl)-6-hydroxy-5-oxo-4,5-dihydrothieno[3,2-b]pyridine-7-carboxylic acid] | 0.25 to 0.75 µM | 
CCOC(=O)c1c(O)c(=O)n(Cc2ccc(OC)cc2)c2ccsc12 [Example 33, ethyl 6-hydroxy-4-(4-methoxybenzyl)-5-oxo-4,5-dihydrothieno[3,2-b]pyridine-7-carboxylate] | 2.25 to 10 µM | 
Cc1c(Cn2c(=O)c(O)c(C(=O)O)c3sccc32)cnn1C [Example 159, 4-[(1,5-dimethyl-1H-pyrazol-4-yl)methyl]-6-hydroxy-5-oxo-4,5-dihydrothieno[3,2-b]pyridine-7-carboxylic acid] |  | 2.25 to 10 µM

Results, then the compound that gave them:

IC50 (hFEN1) | IC50 (hEXO1, Isoform1) | Compound
0.25 to 0.75 µM | 2.25 to 10 µM | O=C(O)c1c(O)c(=O)n(Cc2cccc([N+](=O)[O-])c2)c2ccsc12 [Example 6, 6-hydroxy-4-[(3-nitrophenyl)methyl]-5-oxo-thieno[3,2-b]pyridine-7-carboxylic acid]
< 0.2 µM | 0.75 to 2.25 µM | CS(=O)(=O)Nc1ccc(-c2ncc(Cn3c(=O)c(O)c(C(=O)O)c4sccc43)s2)cc1 [Example 167, 6-hydroxy-4-({2-[4-(methylsulfonamido)phenyl]thiazol-5-yl}methyl)-5-oxo-4,5-dihydrothieno[3,2-b]pyridine-7-carboxylic acid]
< 0.2 µM | 2.25 to 10 µM | Nc1ccc(Cn2c(=O)c(O)c(C(=O)O)c3sccc32)cn1 [Example 97, 4-[(6-aminopyridin-3-yl)methyl]-6-hydroxy-5-oxo-4,5-dihydrothieno[3,2-b]pyridine-7-carboxylic acid]
0.25 to 0.75 µM | 0.75 to 2.25 µM | COc1ccc(-c2ncc(Cn3c(=O)c(O)c(C(=O)O)c4sccc43)s2)cc1 [Example 32, 6-hydroxy-4-{[2-(4-methoxyphenyl)thiazol-5-yl]methyl}-5-oxo-4,5-dihydrothieno[3,2-b]pyridine-7-carboxylic acid]
0.25 to 0.75 µM | 2.25 to 10 µM | O=C(O)c1c(O)c(=O)n(Cc2ccccc2[N+](=O)[O-])c2ccsc12 [Example 37, 6-hydroxy-4-(2-nitrobenzyl)-5-oxo-4,5-dihydrothieno[3,2-b]pyridine-7-carboxylic acid]
0.25 to 0.75 µM | 0.75 to 2.25 µM | COc1ccc(-n2cc(Cn3c(=O)c(O)c(C(=O)O)c4sccc43)c(Br)n2)cc1 [Example 161, 4-{[3-bromo-1-(4-methoxyphenyl)-1H-pyrazol-4-yl]methyl}-6-hydroxy-5-oxo-4,5-dihydrothieno[3,2-b]pyridine-7-carboxylic acid]
< 0.2 µM | 0.75 to 2.25 µM | COc1ccc(Cn2c(=O)c(O)c(C(=O)O)c3sccc32)cc1Cl [Example 70, 4-(3-chloro-4-methoxybenzyl)-6-hydroxy-5-oxo-4,5-dihydrothieno[3,2-b]pyridine-7-carboxylic acid]
0.25 to 0.75 µM | 2.25 to 10 µM | CCOC(=O)c1c(O)c(=O)n(Cc2ccc(N)cc2)c2ccsc12 [Example 41, ethyl 4-(4-aminobenzyl)-6-hydroxy-5-oxo-4,5-dihydrothieno[3,2-b]pyridine-7-carboxylate]
< 0.2 µM |  | O=C(O)c1c(O)c(=O)n(CC2COc3ccccc3O2)c2ccsc12 (stereo not drawn) [Example 13, 4-(2,3-dihydro-1,4-benzodioxin-3-ylmethyl)-6-hydroxy-5-oxo-thieno[3,2-b]pyridine-7-carboxylic acid]
0.25 to 0.75 µM |  | CS(=O)(=O)Nc1ccccc1-n1cc(Cn2c(=O)c(O)c(C(=O)O)c3sccc32)cn1 [Example 108, 6-hydroxy-4-{[1-(2-(methylsulfonamido)phenyl]-1H-pyrazol-4-yl}methyl)-5-oxo-4,5-dihydrothieno[3,2-b]pyridine-7-carboxylic acid]
0.25 to 0.75 µM |  | COc1cccc(Cn2c(=O)c(O)c(C(=O)O)c3sccc32)c1 [Example 52, 6-hydroxy-4-(3-methoxybenzyl)-5-oxo-4,5-dihydrothieno[3,2-b]pyridine-7-carboxylic acid]
0.25 to 0.75 µM |  | Cc1nnc(Cn2c(=O)c(O)c(C(=O)O)c3sccc32)s1 [Example 94, 6-hydroxy-4-[(5-methyl-1,3,4-thiadiazol-2-yl)methyl]-5-oxo-4,5-dihydrothieno[3,2-b]pyridine-7-carboxylic acid]
